The text below walks through data of US20100298340A1, “Thiazol-Guanidine Derivatives Useful As A (Beta)-Related Pathologies” (AstraZeneca AB, priority 2006, published 2010).

For orientation: IC50 means the concentration at which inhibition is half-maximal. Read a low IC50 as higher potency.

T1 sequence (P56817 22-460): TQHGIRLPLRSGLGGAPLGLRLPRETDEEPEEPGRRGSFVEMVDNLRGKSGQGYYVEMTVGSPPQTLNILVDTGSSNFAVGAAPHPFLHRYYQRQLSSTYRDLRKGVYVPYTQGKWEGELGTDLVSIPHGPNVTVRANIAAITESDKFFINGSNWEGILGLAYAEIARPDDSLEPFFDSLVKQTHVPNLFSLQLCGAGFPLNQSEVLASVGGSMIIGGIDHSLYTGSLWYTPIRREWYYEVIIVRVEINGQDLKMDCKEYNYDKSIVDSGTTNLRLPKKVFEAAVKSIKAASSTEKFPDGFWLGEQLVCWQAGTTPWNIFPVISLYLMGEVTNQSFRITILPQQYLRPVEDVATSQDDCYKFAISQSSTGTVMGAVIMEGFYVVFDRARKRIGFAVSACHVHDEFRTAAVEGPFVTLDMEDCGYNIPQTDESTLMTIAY

The assay concerns the target T1, human β-Secretase (Homo sapiens, UniProt P56817).
T1 construct: The soluble part of the human β-Secretase (AA 1-AA 460) was cloned; Fc domain of IgG1 (C); made in house
The assay can be described thus: TR-FRET Assay. The assay is classed as biochemical. The method, then: The enzyme used in the IGEN Cleavage-, Fluorescent-, TR-FRET- and the BiaCore assay is described as follows:
The soluble part of the human β-Secretase (AA 1-AA 460) was cloned into the ASP2-Fc10-1-IRES-GFP-neoK mammalian expression vector. The gene was fused to the Fc domain of IgG1 (affinity tag) and stably cloned into HEK 293 cells. Purified sBACE-Fc is stored in Tris buffer, pH 9.2 and has a purity of 95%.
Dilute the enzyme (truncated form) to 6 μg/mL (stock 1.3 mg/mL) and the substrate (Europium)CEVNLDAEFK(Qsy7) to 200 nM (stock 60 μM) in reaction buffer (NaAcetate, chaps, triton x-100, EDTA pH4.5). The Biomek FX is used for all liquid handling and the enzyme and substrate solutions are kept on ice until they are placed in Biomek FX. Enzyme (9 μl) is added to the plate then 1 μl of compound in dimethylsulphoxide is added, mixed and pre-incubated for 10 minutes. Substrate (10 μl) is then added, mixed and the reaction proceeds in the dark for 15 minutes at room temperature. The reaction is stopped with the addition of Stop solution ([…] pH 9). The fluorescence of the product is measured on a Victor II plate reader with an excitation wavelength of 340 nm and an emission wavelength of 615 nm. The assay is done in a Costar 384 well round bottom, low volume, non-binding surface (Corning #3676). The final concentration of the enzyme is 0.3 nM; the final concentration of substrate is 100 nM (Km of ˜250 nM). The dimethylsulphoxide control defines the 100% activity level and 0% activity is defined by only addition of the peptide substrate.
For orientation: TR-FRET usually uses a lanthanide donor and a delayed reading to cut background.
Consider `CCc1nc(NC(=N)N)sc1-c1ccc(NCC2CCN(C(=O)OCc3ccccc3)CC2)cc1` [Example 20, Benzyl 4-({[4-(2-{[amino(imino)methyl]amino}-4-ethyl-1,3-thiazol-5-yl)phenyl]amino}methyl)piperidine-1-carboxylate], for which the IC50 came out at 5.01 µM. The compound `CCc1ccc2c(Cl)c(C(=O)Nc3cccc(-c4sc(NC(=N)N)nc4C)c3)sc2c1` [Example 18, N-[3-(2-{[Amino(imino)methyl]amino}-4-methyl-1,3-thiazol-5-yl)phenyl]-3-chloro-6-ethyl-1-benzothiophene-2-carboxamide] had an IC50 of 6.03 µM. `Cc1nc(NC(=N)N)sc1-c1cccc(NC(=O)c2ccc(-c3csnn3)cc2)c1` [Example 17, N-[3-(2-{[Amino(imino)methyl]amino}-4-methyl-1,3-thiazol-5-yl)phenyl]-4-(1,2,3-thiadiazol-4-yl)benzamide] registered an IC50 of 4.47 µM. This IC50 and that of the compound before are within 1.5-fold of each other.
